Test results reported in ChEMBL document CHEMBL1127984, “Beneficial replacement of the P1 phenylalanine side chain in HIV-1 protease inhibitors of the difluorostatone type” (Bioorg Med Chem Lett, 1994).

What was measured:
[1] = test system: C8166; test: Cytotoxic dose against HIV-1 was determined in C8166 cells; format: functional; settings: Homo sapiens
[2] = test system: MT4; test: […]; format: functional; settings: Homo sapiens
[3] = target: Human immunodeficiency virus type 1 protease (Human immunodeficiency virus 1, UniProt Q72874); test: Compound was tested for inactivation of purified HIV-1 protease in vitro
[4] = test system: JM1; test: Cytotoxic dose against HIV-1 GB8 strain was determined in JM cells; format: functional; settings: Homo sapiens
[5] = test system: H9; test: Effective dose that inhibits cellular growth of H9 cells infected with HIV-1 U455 strain; format: functional, cell-based; settings: Homo sapiens
[6] = test system: H9; test: Effective dose that inhibits cellular growth of H9 cells infected with HIV-1 RF strain; format: functional, cell-based; settings: Homo sapiens
[7] = test system: H9; test: Effective dose that inhibits cellular growth of H9 cells infected with HIV-1 IIIB strain; format: functional, cell-based; settings: Homo sapiens
[8] = test system: MT4; test: Effective dose that inhibits cellular growth of MT-4 cells infected with HIV-1 RF strain; format: functional, cell-based; settings: Homo sapiens
[9] = test system: CCRF-CEM; test: Effective dose that inhibits cellular growth of CEM cells infected with HIV-1 IIIB strain; format: functional, cell-based; settings: Homo sapiens
[10] = test system: C8166; test: Effective dose that inhibits cellular growth of C8166 cells infected with SIV mac251 strain; settings: Homo sapiens
[11] = Ratio between Cytotoxic dose and effective dose was determined; format: functional
[12] = test system: C8166; test: Effective dose that inhibits cellular growth of C8166 cells infected with HIV-1 RF strain; format: functional, cell-based; settings: Homo sapiens
[13] = test system: JM1; test: Effective dose that inhibits cellular growth of JM cells infected with HIV-1 GB8 strain; format: functional, cell-based; settings: Homo sapiens
[14] = species on record: Homo sapiens; test: Effective dose that inhibits cellular growth of PBMCs cells infected with HIV-1 CCI strain; format: functional, cell-based; settings: PBMC
[15] = test system: MT2; test: Effective dose that inhibits cellular growth of MT2 cells infected with HIV-1 105/A strain; format: functional, cell-based; settings: Homo sapiens
[16] = test system: MT2; test: Effective dose that inhibits cellular growth of MT2 cells infected with HIV-1 105/F strain; format: functional, cell-based; settings: Homo sapiens
[17] = test system: C8166; test: Effective dose that inhibits cellular growth of C8166 cells infected with HIV-2 rod strain; format: functional, cell-based; settings: Homo sapiens

SMILES: CC(C)[C@H](NC(=O)OCc1ccccc1)C(=O)NC(Cc1ccc(OCc2ccccc2)cc1)C(=O)C(F)(F)C(=O)NCc1ccccc1 (some centres undefined)
- CC50 [1]: > 100000 nM
- CC50 [2]: > 100000 nM
- Ki [3]: 5 nM
- CC50 [4]: > 100000 nM
- EC50 [5]: 420 nM
- EC50 [6]: 56 nM
- EC50 [7]: 290 nM
- EC50 [8]: 300 nM
- EC50 [9]: 720 nM
- EC50 [10]: 630 nM
- Ratio [11]: >300
- EC50 [12]: 100 nM
- EC50 [13]: 140 nM
- EC50 [14]: 560 nM
- EC50 [15]: 230 nM
- EC50 [16]: 380 nM
- EC50 [17]: 350 nM

SMILES: CC(C)C[C@H](NC(=O)OCc1ccccc1)C(=O)NC(Cc1ccc(OCc2ccccc2)cc1)C(=O)C(F)(F)C(=O)NCc1ccccc1 (some centres undefined)
- CC50 [2]: 3200 nM
- IC50 [3]: 15 nM
- EC50 [8]: 190 nM
- Ratio [11]: 17

SMILES: CC(C)[C@H](NC(=O)OCc1ccccc1)C(=O)NC(Cc1ccc(OCc2ccccc2)cc1)C(=O)C(F)(F)C(=O)N1CCOCC1 (some centres undefined)
- CC50 [2]: 64000 nM
- Ki [3]: 5 nM
- EC50 [8]: 3200 nM
- Ratio [11]: 20

SMILES: CC(C)[C@H](NC(=O)OC(C)(C)C)C(=O)NC(Cc1ccc(OCc2ccccc2)cc1)C(=O)C(F)(F)C(=O)NCc1ccccc1 (some centres undefined)
- CC50 [2]: 10000 nM
- EC50 [8]: > 10000 nM

SMILES: CC(C)[C@H](NC(=O)OCc1ccccc1)C(=O)NC(Cc1ccc(OCc2ccccc2)cc1)C(=O)C(F)(F)C(=O)N(C)Cc1ccccc1 (some centres undefined)
- CC50 [2]: > 100000 nM
- Ki [3]: 0.4 nM
- EC50 [8]: 280 nM
- Ratio [11]: >300

SMILES: CC(C)[C@H](NS(=O)(=O)Cc1ccccc1)C(=O)NC(Cc1ccc(OCc2ccccc2)cc1)C(=O)C(F)(F)C(=O)NCc1ccccc1 (some centres undefined)
- IC50 [3]: 48000 nM

SMILES: CC(C)[C@H](NC(=O)OCc1ccccc1)C(=O)NC(Cc1ccccc1)C(=O)C(F)(F)C(=O)N1CCc2ccccc2C1 (some centres undefined)
- IC50 [3]: 50 nM

SMILES: CC(C)[C@H](NC(=O)OCc1ccccc1)C(=O)NC(Cc1ccc(OCc2ccccc2)cc1)C(=O)C(F)(F)C(=O)N1CCc2ccccc2C1 (some centres undefined)
- CC50 [2]: > 100000 nM
- IC50 [3]: 2 nM
- EC50 [8]: 360 nM
- Ratio [11]: >280

SMILES: CCN(Cc1ccccc1)C(=O)C(F)(F)C(=O)C(Cc1ccc(OCc2ccccc2)cc1)NC(=O)[C@@H](NC(=O)OCc1ccccc1)C(C)C (some centres undefined)
- CC50 [2]: 10000 nM
- IC50 [3]: 15 nM
- EC50 [8]: 8000 nM
- Ratio [11]: ~1

SMILES: CC(C)[C@H](NC(=O)CCc1cccnc1)C(=O)NC(Cc1ccc(OCc2ccccc2)cc1)C(=O)C(F)(F)C(=O)NCc1ccccc1 (some centres undefined)
- CC50 [2]: > 100000 nM
- IC50 [3]: 8 nM
- EC50 [8]: 320 nM
- Ratio [11]: >100

SMILES: CC(C)[C@H](NC(=O)OCc1ccccc1)C(=O)NC(Cc1ccccc1)C(=O)C(F)(F)C(=O)NCc1ccccc1 (some centres undefined)
- CC50 [2]: 23000 nM
- Ki [3]: 1 nM
- EC50 [8]: 5000 nM
- Ratio [11]: ~5

SMILES: O=C(NC(C(=O)NC(Cc1ccc(OCc2ccccc2)cc1)C(=O)C(F)(F)C(=O)NCc1ccccc1)C1CCCCC1)OCc1ccccc1 (centres undefined)
- CC50 [2]: > 100000 nM
- IC50 [3]: 70 nM
- EC50 [8]: > 100000 nM

SMILES: O=C(NC(C(=O)NC(Cc1ccc(OCc2ccccc2)cc1)C(=O)C(F)(F)C(=O)NCc1ccccc1)C1CCCC1)OCc1ccccc1 (centres undefined)
- CC50 [2]: > 100000 nM
- IC50 [3]: 6 nM
- Ratio [11]: >33

SMILES: CC(C)[C@H](NC(=O)OCc1ccccc1)C(=O)NC(Cc1ccccc1)C(=O)C(F)(F)C(=O)N1CCOCC1 (some centres undefined)
- CC50 [2]: > 100000 nM
- Ki [3]: 70 nM
- EC50 [8]: 50000 nM
- Ratio [11]: >2
